Experimental data taken from patent US20200197544A1, “JCV IMAGING METHODS AND COMPOSITIONS” (BIOGEN MA Inc., priority 2017, published 2020).
“Also recorded” adds a separate entry of the source.

Tested on: JCV-infected human astrocytes
Assay: ^3H-FLT uptake in uninfected and JCV-infected human astrocytes (TK1 activity)
Assay type: cell-based
Settings: JCV-infected astrocytes compared to uninfected astrocytes; uptake as a measure of TK1 activity
Experimental: The activity of TK1 in uninfected and JCV-infected human astrocytes was determined by analyzing the cellular uptake of ^3H-FLT, a radiolabeled TK1 substrate.

Cc1cn([C@H]2C[C@H](F)[C@@H](CO)O2)c(=O)[nH]c1=O [^3H-FLT]
^3H-FLT uptake: higher in JCV-infected astrocytes as compared to uninfected astrocytes; also recorded: elevated levels of TK1 activity, as determined by uptake of ^3H-FLT, compared to uninfected cells
